In US20250177525A1, “POLYDONOR CD4+ T CELLS EXPRESSING IL-10 AND USES THEREOF” (TR1X, INC., priority 2021, published 2025):

Tested on: NLPR3 inflammasome
Assay: IL-1β production by LPS activated monocytes
Assay type: cell-based, human
Details: anti-IL-10R antibody
Procedure: CD14^+ monocytes were isolated from PBMC using a pan monocyte isolation kit (Miltenyi Biotec, Bergisch Gladbach, Germany) and plated in 96 flat microtiter wells at 2×10^5/200 μL per well and cultured in the presence of LPS. The cells were cultured further in the presence of Z-YVADfmk (20 microMol), MMC950 (10 microMol), IL-10 (10 ng/mL) or various concentrations of single- or pooled donor CD4^IL-10 cell supernatants as summarized in Table 1.
The supernatants were obtained from single- or pooled donor CD4^IL-10 cells activated for 72 hours with a combination of CD3 and CD28 antibodies as described previously. (Andolfi et al. 2012, Mol. Therapy Vol. 20, 1778-1790, Locafaro et al. Mol Ther 2017, 25, 2254) In some cases (FIGS. 19C and 19D), the monocytes were incubated with LPS in combination with the NLPR3 inflammasome activator nigericin (“NIG”) which was added during the last 30 minutes of the LPS activation.
The NLPR3 inflammasome was activated by LPS, resulting in the production of mature caspase 1 and the biologically active forms of IL-1β and IL-18.

CC(C)(O)c1coc(S(=O)(=O)NC(=O)Nc2c3c(cc4c2CCC4)CCC3)c1 [MCC950]
effect of anti-IL-10 receptor antibody on the inhibitory effects: no effect

Z-YVADfmk [Z-VADfmk]
effect of anti-IL-10 receptor antibody on the inhibitory effects: no effect
